Data from ChEMBL document CHEMBL3616440, “Non-basic azolotriazinone MCHR1 antagonists for the treatment of obesity: An empirical brain-exposures-driven candidate selection for in vivo efficacy studies” (Bioorg Med Chem Lett, 2015).
Each block holds one compound with its values, some of them ahead of it.

Columns and labels:
Rattus norvegicus [1] = assay: Antiobesity activity in Sprague-Dawley rat assessed as body weight reduction at 10 mg/kg, po qd after 4 days relative to control; type: functional; settings: 96 h
Rattus norvegicus [2] = assay: Antiobesity activity in Sprague-Dawley rat assessed as body weight reduction at 3 mg/kg, po qd after 4 days relative to control; type: functional; settings: 96 h
Rattus norvegicus [3] = assay: Antiobesity activity in Sprague-Dawley rat assessed as body weight reduction at 30 mg/kg, po qd after 4 days relative to control; type: functional; settings: 96 h
Liver [4] = assay: Prodrug conversion in oral-dosed Sprague-Dawley rat liver assessed as 3-(4-(6-(4-chlorophenyl)-4-oxopyrrolo[1,2-f][1,2,4]triazin-3(4H)-yl)-2-methoxyphenoxy)-2-hydroxypropanoic acid formation; type: ADME, tissue-based; settings: in vivo
Liver [5] = assay: Prodrug conversion in oral-dosed Sprague-Dawley rat liver assessed as 6-(4-chlorophenyl)-3-(4-(2,3-dihydroxypropoxy)-3-methoxyphenyl)pyrrolo[1,2-f][1,2,4]triazin-4(3H)-one formation; type: ADME, tissue-based; settings: in vivo
Brain [6] = assay: Drug concentration in Sprague-Dawley rat brain assessed as 6-(4-chlorophenyl)-3-(4-(2-hydroxypropoxy)-3-methoxyphenyl)pyrrolo[1,2-f][1,2,4]triazin-4(3H)-one level at 10 mg/kg, po qd after 10 days; type: ADME, organism-based; settings: in vivo, 240 h, read-out: Drug uptake
Brain [7] = assay: Drug concentration in Sprague-Dawley rat brain assessed as 6-(4-chlorophenyl)-3-(4-(2-hydroxypropoxy)-3-methoxyphenyl)pyrrolo[1,2-f][1,2,4]triazin-4(3H)-one level at 30 mg/kg, po qd after 10 days; type: ADME, organism-based; settings: in vivo, 240 h, read-out: Drug uptake
Brain [8] = assay: Drug concentration in Sprague-Dawley rat brain assessed as 6-(4-chlorophenyl)-3-(4-(2-hydroxypropoxy)-3-methoxyphenyl)pyrrolo[1,2-f][1,2,4]triazin-4(3H)-one level at 3 mg/kg, po qd after 10 days; type: ADME, organism-based; settings: in vivo, 240 h, read-out: Drug uptake
Brain [9] = assay: Free drug level in Sprague-Dawley rat brain assessed as 6-(4-chlorophenyl)-3-(4-(2-hydroxypropoxy)-3-methoxyphenyl)pyrrolo[1,2-f][1,2,4]triazin-4(3H)-one level at 30 mg/kg, po qd at 20 hrs; type: ADME, organism-based; settings: in vivo
[10] = Ratio of free drug level in brain of Sprague-Dawley rat assessed as 6-(4-chlorophenyl)-3-(4-(2-hydroxypropoxy)-3-methoxyphenyl)pyrrolo[1,2-f][1,2,4]triazin-4(3H)-one level at 30 mg/kg, po to Ki for rat MCHR1; type: ADME, organism-based; settings: in vivo
Rattus norvegicus [11] = assay: Toxicity in Sprague-Dawley rat assessed as biliary lesion at 10 mg/kg, po qd for 10 days; type: organism-based; settings: in vivo, 240 h
Plasma = assay: Fraction unbound in Sprague-Dawley rat plasma assessed as 6-(4-chlorophenyl)-3-(4-(2-hydroxypropoxy)-3-methoxyphenyl)pyrrolo[1,2-f][1,2,4]triazin-4(3H)-one level; type: ADME, cell-free
Rattus norvegicus [12] = assay: Toxicity in oral-dosed Sprague-Dawley rat assessed as biliary lesion after 4 days; type: organism-based; settings: in vivo, 96 h
Brain [13] = assay: Drug concentration in Sprague-Dawley rat brain assessed as 6-(4-chlorophenyl)-3-(4-(2-hydroxy-2-methylpropoxy)-3-methoxyphenyl)thieno[3,2-d]pyrimidin-4(3H)-one level at 10 mg/kg, po qd at 20 hrs; type: ADME, organism-based; settings: in vivo, read-out: Drug uptake
[14] = molecular target: Melanin-concentrating hormone receptor 1 (Rattus norvegicus) (UniProt P97639); settings: 10 uM
Sequence of Melanin-concentrating hormone receptor 1 (Rattus norvegicus) (P97639 whole entry): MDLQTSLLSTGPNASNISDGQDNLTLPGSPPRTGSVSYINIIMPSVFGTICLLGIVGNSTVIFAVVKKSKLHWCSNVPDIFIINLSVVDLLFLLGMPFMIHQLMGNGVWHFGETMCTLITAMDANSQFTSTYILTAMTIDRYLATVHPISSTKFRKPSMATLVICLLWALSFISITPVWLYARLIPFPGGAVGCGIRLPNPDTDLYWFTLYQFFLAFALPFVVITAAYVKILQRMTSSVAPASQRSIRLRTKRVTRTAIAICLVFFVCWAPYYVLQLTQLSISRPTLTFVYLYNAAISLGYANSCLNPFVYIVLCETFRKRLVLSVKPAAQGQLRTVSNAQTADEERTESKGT
Description: Displacement of [125I][Phe13,Tyr19]-MCH from rat MCHR1 at 10 uM by scintillation counting analysis

Rattus norvegicus [15] = assay: Toxicity in oral-dosed Sprague-Dawley rat assessed as biliary lesion after 30 days; type: organism-based; settings: in vivo, 720 h
[16] = molecular target: Melanin-concentrating hormone receptor 1 (Homo sapiens, UniProt Q99705); assay: Antagonist activity at human MCHR1 expressed in HEK293 cells assessed as inhibition of MCH-induced Ca2+ influx for 120 mins by FLIPR assay; type: functional, cell-based
Sequence of Melanin-concentrating hormone receptor 1 (Homo sapiens, UniProt Q99705) (Q99705 whole entry): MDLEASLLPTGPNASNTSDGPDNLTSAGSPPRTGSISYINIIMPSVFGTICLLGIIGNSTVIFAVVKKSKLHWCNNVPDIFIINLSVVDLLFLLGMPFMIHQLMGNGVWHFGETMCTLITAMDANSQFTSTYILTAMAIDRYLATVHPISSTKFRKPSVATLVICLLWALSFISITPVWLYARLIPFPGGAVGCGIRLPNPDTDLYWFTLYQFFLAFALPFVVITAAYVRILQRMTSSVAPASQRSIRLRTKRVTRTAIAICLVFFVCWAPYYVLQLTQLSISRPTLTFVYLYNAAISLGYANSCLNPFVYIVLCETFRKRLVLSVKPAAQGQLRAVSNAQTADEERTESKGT

[17] = molecular target: Melanin-concentrating hormone receptor 1 (Rattus norvegicus, UniProt P97639); assay: Displacement of [125I][Phe13,Tyr19]-MCH from rat MCHR1 by scintillation counting analysis
Sequence of Melanin-concentrating hormone receptor 1 (Rattus norvegicus, UniProt P97639) (P97639 whole entry): as the sequence (P97639 whole entry) above

Drug metabolism (Liver [4]): 46 µM | Drug metabolism (Liver [5]): 6 µM | concentration (Brain [6]): 12.9 µM | concentration (Brain [7]): 20.8 µM | concentration (Brain [8]): 4.12 µM | Drug uptake(free) (Brain [9]): 8.4 nM | Ratio [10]: 6 | Fu (Plasma): 0.4%
SMILES: COc1cc(-n2cnn3cc(-c4ccc(Cl)cc4)cc3c2=O)ccc1OCC(C)OC(=O)[C@@H](N)C(C)C (stereo partly drawn)
inhibition in vivo at 10 mg/kg (Rattus norvegicus [1]): 3.9% | inhibition in vivo at 3 mg/kg (Rattus norvegicus [2]): 2.6% | inhibition in vivo at 30 mg/kg (Rattus norvegicus [3]): 7.6% | Activity (Rattus norvegicus [11]): Toxic

SMILES: COc1cc(-n2cnc3cc(-c4ccc(Cl)cc4)sc3c2=O)ccc1OCC(C)O (stereo not drawn)
Activity (Rattus norvegicus [12]): Toxic

SMILES: COc1cc(-n2cnc3cc(-c4ccc(Cl)cc4)sc3c2=O)ccc1OCC(C)(C)O
concentration (Brain [13]): 1.61 µM | inhibition [14]: > 90% | Activity (Rattus norvegicus [15]): Toxic | IC50 [16]: 16 nM | Ki [17]: 7.2 nM
